{"source": "patent US5760214A", "about": "“Bone resorption inhibition/osteogenesis promotion compound” (Iskra Industry Co., Ltd., priority 1993, dated 1998)", "key": {"mice": {"system": "mice", "assay": "Acute Toxicity Test (Experiment 2)", "assay_type": "in vivo, mice (Kunming species)", "conditions": "for No. of dead animals: of 10 animals", "description": "The compound 1-3 was pale yellow crystalline poweder and its lot number was 930113. The solution was a pale yellow transparent solution, and has a concentration of 50 mg/ml and a pH of about 5. It was offered from Osteoporosis Research Laboratory, Department of Pharmacy, West China University of Medical Science School (WCUMS).\nKunming species mice, health: first class, weight: 18 to 21 g, half male and half female. The mice were offered from Experimental Animal Center of WCUSM.\nFour to five dose groups were prepared in equal ratios (1:0.7 to 0.8) within the LD range of 0 to 100% obtained by preliminary tests. The drug for peroral administration was prepared by suspending the solid compound 1-3 in 1% CMCNa2 to form a suspension. For injection, drug solutions having different concentrations were prepared by dissolving the compound 1-3 in physiological saline solution by a low specific gravity dilution method. The animals were starved (but without limiting water), and 20 hours later, ten mice were grouped at random into each group irrespective of their sex and body weight. The drug was dosed once a day in a dose of 0.2 ml/10 g and the animals were inspected. Dead animals were dissected and any change of the morbid state was examined with by the naked eye.\nAfter the chemical was dosed once in the maximum concentration and in the maximum capacity for peroral administration to 20 mice (10 males and 10 females), the animals were examined for 7 days. […] The maximum tolerance dose (MTD) was >6 g/kg."}, "[1]": {"assay": "Intracorporeal Distribution of Compound (Experiment 1)", "assay_type": "in vivo", "conditions": "mice, 20 μCi/20 g; for drug concentration in blood: i.v. tail vein, 3H, mean; for drug quantity in tissue: brain / drug quantity in tissue: muscle / drug quantity in tissue: stomach: i.v.", "description": "The compound 1-3 produced in Synthesis Example 1-3 was subjected to radioactive labelling by ^3 H (0.34 mCi/mg), and was injected into the vein of the tail of mice in a dosage of 20 μCi/20 g. Groups of mice each comprising five mice were killed at 1 minute, 5 minutes, 15 minutes, 30 minutes, 1 hour, 4 hours, 6 hours, 24 hours, 48 hours and 72 hours after the injection, and 50 μl of the blood was collected from the eye socket of each mouse. Further, the heart, the womb, the small intestine, bones (thighbone), etc., were collected from each mouse, and 50 mg of the tissue (50 μl for the blood) was placed into a plastic test tube. Further, 0.2 ml of perchloric acid, 0.4 ml of hydrogen peroxide and a drop of n-octyl alcohol were put into the test tube, and the test tube was left in a water bath at 75° C. for 45 minutes. Next, 0.1 ml of this digestive fluid was sampled and was placed into a bottle storing a scintillating solution and furthermore, 5 ml of 0.5% scintillating solution was mixed. After the solution became transparent, it was placed into an FJ2105 liquid scintillation counter so as to measure radioactivity and to determine cpm of the sample. Separately, dpm of 52 samples obtained from four groups of animals was measured (External Standard Method).\nThe quantity of the drug inside the tissue was determined in the following way.\nDrug quantity in tissue (cpm/mg)=(sample cpm).div.(digested tissue quantity (mg))\nDrug quantity in tissue (μg/mg)=(sample cpm/mg×6)[…](count efficiency (E)×2.22×10^7 ×0.34 mCi/mg (specific radioactivity))"}, "[2]": {"system": "osteoblast originating from the calvaria of Whister rats", "assay": "Osteogenesis Test (1) (Experiment 3), von Kossa dyeing", "assay_type": "cell-based", "conditions": "10^-8 M, addition in calcification period", "description": "A first generation incubation system of the osteoblast originating from the calvaria of Whister rats (female, 6-months' age) was used as the test cells. After the start of incubation, the sample drug (compound 1-3) was added once a day to the medium in a dose of 10^-6 M, 10^-8 M or 10^-9 M on the second and third days (propagation period). Alternatively, the compound 1-3 in the amount described above was added once a day to the medium for 4 days (calcification period) from the seventh day from the start of incubation. On the fourteenth day from the start of incubation, the cells were subjected to von Kossa dyeing and detection of phosphates was carried out. The area of the bone knots which were dyed to brown was confirmed by the naked eye and was used as the index for osteogenesis."}, "[3]": {"system": "synthesis of bone proteins", "conditions": "cell level, U.S. Pat. No. 4,925,833; cited from earlier work"}, "[4]": {"conditions": "peroral, maximum concentration, single dose, 7 days"}}}
{"smiles": "CN(C)C1C(=O)C(C(=O)NCN2CCN(CCOc3ccc4c(c3)CCC3C4CCC4(C)C(=O)CCC34)CC2)=C(O)C2(O)C(=O)C3=C(O)c4c(O)cccc4C(C)(O)C3CC12", "note": "(stereo not shown) [Compound 1-3, N-4-[17-oxy-estra-1,3,5 (10)-trien-3-oxyethyl]-piperazine-1-methylene-tetracycline]", "values": [{"measurement": "toxicity", "setting": "mice", "result": "its toxicity was extremely low"}, {"measurement": "activity / behaviour after injection", "setting": "mice; after intravenous injection", "result": "activity of the mice decreased and then the mice started jumping and went into spasm"}, {"measurement": "difference between the sexes of the dead animals", "setting": "mice; after intravenous injection", "result": "No difference was found between the sexes of the dead animals"}, {"measurement": "eyeball, incontinence", "setting": "mice; after intravenous injection", "result": "The eyeball protruded and changed to white, and incontinence of urine and feces was observed"}, {"measurement": "time of death of poisoned animals", "setting": "mice; after intravenous injection", "result": "the major proportion of the poisoned animals died instantly, an extremely few survived were also dead within 24 hours"}, {"measurement": "change of the morbid state in dissection", "setting": "mice; dead animals, naked eye", "result": "any change of the morbid state could not at all be observed by the naked eye"}, {"measurement": "death ratio", "setting": "mice; i.v. tail vein, 102.4 mg/kg", "result": 0, "unit": "%"}, {"measurement": "provit unit (Y)", "setting": "mice; i.v. tail vein, 102.4 mg/kg", "result": 2.60}, {"measurement": "No. of dead animals", "setting": "mice; i.v. tail vein, 102.4 mg/kg", "result": 0}, {"measurement": "death ratio", "setting": "mice; i.v. tail vein, 128 mg/kg", "result": 20, "unit": "%"}, {"measurement": "provit unit (Y)", "setting": "mice; i.v. tail vein, 128 mg/kg", "result": 4.16}, {"measurement": "No. of dead animals", "setting": "mice; i.v. tail vein, 128 mg/kg", "result": 2}, {"measurement": "death ratio", "setting": "mice; i.v. tail vein, 160 mg/kg", "result": 80, "unit": "%"}, {"measurement": "provit unit (Y)", "setting": "mice; i.v. tail vein, 160 mg/kg", "result": 5.84}, {"measurement": "No. of dead animals", "setting": "mice; i.v. tail vein, 160 mg/kg", "result": 8}, {"measurement": "death ratio", "setting": "mice; i.v. tail vein, 200 mg/kg", "result": 100, "unit": "%"}, {"measurement": "provit unit (Y)", "setting": "mice; i.v. tail vein, 200 mg/kg", "result": 7.40}, {"measurement": "No. of dead animals", "setting": "mice; i.v. tail vein, 200 mg/kg", "result": 10}, {"measurement": "death ratio", "setting": "mice; i.v. tail vein, 250 mg/kg", "result": 100, "unit": "%"}, {"measurement": "No. of dead animals", "setting": "mice; i.v. tail vein, 250 mg/kg", "result": 10}, {"measurement": "LD50", "setting": "mice; i.v. tail vein, Bliss method", "result": 143.11, "unit": "mg/kg"}, {"measurement": "LD50, range of 95% reliability limit", "setting": "mice; i.v. tail vein, Bliss method", "result": "132.95 to 154.05", "unit": "mg/kg"}, {"measurement": "LD50", "setting": "mice; intravenous injection, tail vein", "result": 143.11, "unit": "mg/kg"}, {"measurement": "abnormality in the mice", "setting": "mice; [4]", "result": "no abnormality was found in the mice"}, {"measurement": "death of mice", "setting": "mice; [4]", "result": "no mouse was dead"}, {"measurement": "drug concentration in blood", "setting": "[1]; 1 min", "result": 8665, "unit": "cpm/50 μl"}, {"measurement": "drug concentration in blood", "setting": "[1]; 5 min", "result": 5238, "unit": "cpm/50 μl"}, {"measurement": "drug concentration in blood", "setting": "[1]; 15 min", "result": 2638, "unit": "cpm/50 μl"}, {"measurement": "drug concentration in blood", "setting": "[1]; 30 min", "result": 2347, "unit": "cpm/50 μl"}, {"measurement": "drug concentration in blood", "setting": "[1]; 1 hr", "result": 952, "unit": "cpm/50 μl"}, {"measurement": "drug concentration in blood", "setting": "[1]; 4 hr", "result": 659, "unit": "cpm/50 μl"}, {"measurement": "drug concentration in blood", "setting": "[1]; 6 hr", "result": 715, "unit": "cpm/50 μl"}, {"measurement": "drug concentration in blood", "setting": "[1]; 24 hr", "result": 523, "unit": "cpm/50 μl"}, {"measurement": "drug concentration in blood", "setting": "[1]; 48 hr", "result": 272, "unit": "cpm/50 μl"}, {"measurement": "drug concentration in blood", "setting": "[1]; 72 hr", "result": 190, "unit": "cpm/50 μl"}, {"measurement": "drug quantity in tissue: brain", "setting": "[1]; 1 min", "result": 20, "unit": "cpm/mg tissue"}, {"measurement": "drug quantity in tissue: muscle", "setting": "[1]; 1 min", "result": 28, "unit": "cpm/mg tissue"}, {"measurement": "drug quantity in tissue: stomach", "setting": "[1]; 1 min", "result": 30, "unit": "cpm/mg tissue"}, {"measurement": "drug quantity in tissue: brain", "setting": "[1]; 5 min", "result": 13, "unit": "cpm/mg tissue"}, {"measurement": "drug quantity in tissue: muscle", "setting": "[1]; 5 min", "result": 32, "unit": "cpm/mg tissue"}, {"measurement": "drug quantity in tissue: stomach", "setting": "[1]; 5 min", "result": 39, "unit": "cpm/mg tissue"}, {"measurement": "drug quantity in tissue: brain", "setting": "[1]; 15 min", "result": 9, "unit": "cpm/mg tissue"}, {"measurement": "drug quantity in tissue: muscle", "setting": "[1]; 15 min", "result": 15, "unit": "cpm/mg tissue"}, {"measurement": "drug quantity in tissue: stomach", "setting": "[1]; 15 min", "result": 28, "unit": "cpm/mg tissue"}, {"measurement": "drug quantity in tissue: brain", "setting": "[1]; 30 min", "result": 10, "unit": "cpm/mg tissue"}, {"measurement": "drug quantity in tissue: muscle", "setting": "[1]; 30 min", "result": 22, "unit": "cpm/mg tissue"}, {"measurement": "drug quantity in tissue: stomach", "setting": "[1]; 30 min", "result": 32, "unit": "cpm/mg tissue"}, {"measurement": "drug quantity in tissue: brain", "setting": "[1]; 1 hour", "result": 7, "unit": "cpm/mg tissue"}, {"measurement": "drug quantity in tissue: muscle", "setting": "[1]; 1 hour", "result": 11, "unit": "cpm/mg tissue"}, {"measurement": "drug quantity in tissue: stomach", "setting": "[1]; 1 hour", "result": 12, "unit": "cpm/mg tissue"}, {"measurement": "drug quantity in tissue: brain", "setting": "[1]; 4 hours", "result": 7, "unit": "cpm/mg tissue"}, {"measurement": "drug quantity in tissue: muscle", "setting": "[1]; 4 hours", "result": 7, "unit": "cpm/mg tissue"}, {"measurement": "drug quantity in tissue: stomach", "setting": "[1]; 4 hours", "result": 10, "unit": "cpm/mg tissue"}, {"measurement": "drug quantity in tissue: brain", "setting": "[1]; 6 hours", "result": 6, "unit": "cpm/mg tissue"}, {"measurement": "drug quantity in tissue: muscle", "setting": "[1]; 6 hours", "result": 6, "unit": "cpm/mg tissue"}, {"measurement": "drug quantity in tissue: stomach", "setting": "[1]; 6 hours", "result": 9, "unit": "cpm/mg tissue"}, {"measurement": "drug quantity in tissue: brain", "setting": "[1]; 24 hours", "result": 4, "unit": "cpm/mg tissue"}, {"measurement": "drug quantity in tissue: muscle", "setting": "[1]; 24 hours", "result": 4, "unit": "cpm/mg tissue"}, {"measurement": "drug quantity in tissue: stomach", "setting": "[1]; 24 hours", "result": 6, "unit": "cpm/mg tissue"}, {"measurement": "drug quantity in tissue: brain", "setting": "[1]; 48 hours", "result": 4, "unit": "cpm/mg tissue"}, {"measurement": "drug quantity in tissue: muscle", "setting": "[1]; 48 hours", "result": 5, "unit": "cpm/mg tissue"}, {"measurement": "drug quantity in tissue: stomach", "setting": "[1]; 48 hours", "result": 4, "unit": "cpm/mg tissue"}, {"measurement": "drug quantity in tissue: brain", "setting": "[1]; 72 hours", "result": 3, "unit": "cpm/mg tissue"}, {"measurement": "drug quantity in tissue: muscle", "setting": "[1]; 72 hours", "result": 4, "unit": "cpm/mg tissue"}, {"measurement": "drug quantity in tissue: stomach", "setting": "[1]; 72 hours", "result": 3, "unit": "cpm/mg tissue"}, {"measurement": "Osteogenesis promotion function, calcification period", "setting": "[2]", "result": ".uparw. .uparw."}]}
{"smiles": "CN(C)[C@@H]1C(O)=C(C(N)=O)C(=O)[C@@]2(O)C(O)=C3C(=O)c4c(O)cccc4[C@@](C)(O)[C@H]3C[C@@H]12", "note": "[tetracycline]", "values": [{"measurement": "synthesis of bone proteins", "setting": "[3]", "result": "promotes the synthesis of bone proteins"}]}
